Data reported in patent US6737383B1, “Herbicidal oxadiazolidines” (priority 1999, dated 2004).

Legend:
Johnson grass = assay: Test D Johnson grass; format: in vivo, Sorghum halepense; conditions: Postemergence, 0 to 100 scale
jointed goatgrass = assay: Test E jointed goatgrass; format: in vivo, Aegilops cylindrica; conditions: Preemergence
green foxtail = assay: Test E green foxtail; format: in vivo, Setaria viridis; conditions: Postemergence
Outline: (§1)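 Greenhouse test: compounds in non-phytotoxic solvent with surfactant; for postemergence, sprayed on plants at 1- to 4-leaf stage grown in 60:40 sandy loam/potting mix. Injury rated visually against untreated controls after about 21 to 28 days.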

wild buckwheat [1] = assay: Test E wild buckwheat; format: in vivo, Polygonum convolvulus; conditions: Postemergence
Experimental: (§2) Compounds evaluated in this test were formulated in a non-phytotoxic solvent mixture which included a surfactant and applied to plants that were in the 1- to 4-leaf stage (postemergence application). A mixture of sandy loam soil and greenhouse potting mix in a 60:40 ratio was used for the postemergence test.
(§3) Plantings of these crops and weed species were adjusted to produce plants of appropriate size for the postemergence test. All plant species were grown using normal greenhouse practices. Crop and weed species include annual bluegrass (Poa annua), blackgrass (Alopecurus myosuroides), black nightshade (Solanum nigra), chickweed (Stellaria media), common poppy (Papaver rhoeas), deadnettle (Lamium amplexicaule), downy brome (Bromus tectorum), field violet (Viola arvensis), galium (Galium aparine), green foxtail (Setaria viridis), Italian ryegrass (Lolium multiflorum), jointed goatgrass (Aegilops cylindrica), kochia (Kochia scoparia), lambsquarters (Chenopodium album), littleseed canarygrass (Phalaris minor), rape (Brassica napus), redroot pigweed (Amaranthus retroflexus), Russian thistle (Salsola kali), scentless chamomile (Matricaria inodora), spring barley (Hordeum vulgare), sugar beet (Beta vulgaris), sunflower (Helianthus annuus), ivyleaf speedwell (Veronica hederaefolia), spring wheat (Triticum aestivum), winter wheat (Triticum aestivum), wild buckwheat (Polygonum convolvulus), wild mustard (Sinapis arvensis), wild oat (Avena fatua), windgrass (Apera spica-venti) and winter barley (Hordeum vulgare).
(§4) Treated plants and untreated controls were maintained in a greenhouse for approximately 21 to 28 days, after which all treated plants were compared to untreated controls and visually evaluated. […] A dash response (-) means no test result.

sugar beet = assay: Test E sugar beet; format: in vivo, Beta vulgaris; conditions: Preemergence
windgrass = assay: Test E windgrass; format: in vivo, Apera spica-venti; conditions: Preemergence
Russian thistle [2] = assay: Test E Russian thistle; format: in vivo, Salsola kali; conditions: Postemergence
Experimental: (§5) […] A mixture of sandy loam soil and greenhouse potting mix in a 60:40 ratio was used for the postemergence test.
as §3, §4

kochia = assay: Test E kochia; format: in vivo, Kochia scoparia; conditions: Preemergence
wild mustard [3] = assay: Test E wild mustard; format: in vivo, Sinapis arvensis; conditions: Preemergence
chickweed = assay: Test E chickweed; format: in vivo, Stellaria media; conditions: Postemergence
Experimental: as §2, §3, §4

sunflower = assay: Test E sunflower; format: in vivo, Helianthus annuus; conditions: Preemergence
field violet = assay: Test E field violet; format: in vivo, Viola arvensis; conditions: Preemergence
deadnettle = assay: Test E deadnettle; format: in vivo, Lamium amplexicaule; conditions: Preemergence
wild mustard [4] = assay: Test E wild mustard; format: in vivo, Sinapis arvensis; conditions: Postemergence
Experimental: as §5, §3, §4

Russian thistle [5] = assay: Test E Russian thistle; format: in vivo, Salsola kali; conditions: Preemergence
annual bluegrass = assay: Test E annual bluegrass; format: in vivo, Poa annua; conditions: Preemergence
ivyleaf speedwell = assay: Test E postemergence ivyleaf speedwell; format: in vivo, Veronica hederaefolia
Experimental: as §2, §3, §4

common poppy = assay: Test E common poppy; format: in vivo, Papaver rhoeas; conditions: Postemergence
Outline: as §1

littleseed canarygrass = assay: Test E littleseed canarygrass; format: in vivo, Phalaris minor; conditions: Postemergence
Outline: as §1

wild buckwheat [6] = assay: Test E wild buckwheat; format: in vivo, Polygonum convolvulus; conditions: Preemergence
galium = assay: Test E galium; format: in vivo, Galium aparine; conditions: Preemergence
rape = assay: Test E rape; format: in vivo, Brassica napus; conditions: Preemergence
spring wheat = assay: Test E spring wheat; format: in vivo, Triticum aestivum; conditions: Preemergence
winter barley = assay: Test E winter barley; format: in vivo, Hordeum vulgare; conditions: Postemergence
Experimental: as §2, §3, §4

[7] = Rate 125 g/ha, 0 to 100 scale (0 no effect, 100 complete control)
[8] = Rate 500 g/ha, 0 to 100 scale where 0 is no effect and 100 is complete control
[9] = Rate 250 g/ha, 0 to 100 scale (0 no effect, 100 complete control)
[10] = Rate 500 g/ha, 0 to 100 scale, 0 no effect, 100 complete control

SMILES: CC(C)N(C(=O)n1oc(=O)n(C2CC2)c1=O)c1ccc(F)cc1F [Compound 299]
- Plant response rating Johnsongrass (Johnson grass; Rate 64 g/ha, 0 no injury, 100 complete control): 0
- Plant response rating Johnsongrass (Johnson grass; Rate 125 g/ha, 0 no injury, 100 complete control): 60
- Plant response rating Johnsongrass (Johnson grass; Rate 250 g/ha): 100
- Plant response rating Johnsongrass (Johnson grass; Rate 500 g/ha): 100

SMILES: CC(C)N(C(=O)n1oc(=O)n(C(C)C)c1=O)c1ccc(F)cc1F [Compound 109]
- Plant response rating, Jointed goatgra (jointed goatgrass; [7]): 20
- Plant response rating, Jointed goatgra (jointed goatgrass; Rate 250 g/ha, 0 to 100 scale): 65
- Plant response rating, Jointed goatgra (jointed goatgrass; [8]): 70
- Plant response rating, Green foxtail (green foxtail; Rate 125 g/ha, 0 to 100 scale): 30
- Plant response rating, Green foxtail (green foxtail; [9]): 65
- Plant response rating, Green foxtail (green foxtail; [10]): 80
- Plant response rating, Wild buckwheat (wild buckwheat [1]; Rate 125 g/ha, 0 to 100 scale): 10
- Plant response rating, Wild buckwheat (wild buckwheat [1]; [9]): 20
- Plant response rating, Wild buckwheat (wild buckwheat [1]; [10]): 10
- Plant response rating, Sugar beet (sugar beet; [7]): 0
- Plant response rating, Sugar beet (sugar beet; Rate 250 g/ha, 0 to 100 scale): 60
- Plant response rating, Sugar beet (sugar beet; [8]): 70
- Plant response rating, Windgrass (windgrass; [7]): 100
- Plant response rating, Windgrass (windgrass; [8]): 100
- Plant response rating, Russian thistle (Russian thistle [2]; Rate 125 g/ha, 0 to 100 scale): 0
- Plant response rating, Russian thistle (Russian thistle [2]; [9]): 0
- Plant response rating, Russian thistle (Russian thistle [2]; [10]): 0
- Plant response rating, Kochia (kochia; [7]): 0
- Plant response rating, Kochia (kochia; Rate 250 g/ha, 0 to 100 scale): 50
- Plant response rating, Kochia (kochia; [8]): 100
- Plant response rating, Wild mustard (wild mustard [3]; [7]): 30
- Plant response rating, Wild mustard (wild mustard [3]; Rate 250 g/ha, 0 to 100 scale): 85
- Plant response rating, Wild mustard (wild mustard [3]; [8]): 80
- Plant response rating, Chickweed (chickweed; Rate 125 g/ha, 0 to 100 scale): 0
- Plant response rating, Chickweed (chickweed; [9]): 0
- Plant response rating, Chickweed (chickweed; [10]): 10
- Plant response rating, Sunflower (sunflower; [7]): 0
- Plant response rating, Sunflower (sunflower; Rate 250 g/ha, 0 to 100 scale): 10
- Plant response rating, Sunflower (sunflower; [8]): 5
- Plant response rating, Field violet (field violet; [7]): 50
- Plant response rating, Field violet (field violet; Rate 250 g/ha, 0 to 100 scale): 15
- Plant response rating, Field violet (field violet; [8]): 20
- Plant response rating, Deadnettle (deadnettle; [7]): 20
- Plant response rating, Deadnettle (deadnettle; Rate 250 g/ha, 0 to 100 scale): 30
- Plant response rating, Deadnettle (deadnettle; [8]): 30
- Plant response rating, Wild mustard (wild mustard [4]; Rate 125 g/ha, 0 to 100 scale): 40
- Plant response rating, Wild mustard (wild mustard [4]; [9]): 50
- Plant response rating, Wild mustard (wild mustard [4]; [10]): 20
- Plant response rating, Russian thistle (Russian thistle [5]; [7]): 0
- Plant response rating, Russian thistle (Russian thistle [5]; Rate 250 g/ha, 0 to 100 scale): 0
- Plant response rating, Russian thistle (Russian thistle [5]; [8]): 0
- Plant response rating, Annual bluegras (annual bluegrass; [7]): 40
- Plant response rating, Annual bluegras (annual bluegrass; Rate 250 g/ha, 0 to 100 scale): 90
- Plant response rating, Annual bluegras (annual bluegrass; [8]): 75
- Plant response rating, Veronica hedera (ivyleaf speedwell; Rate 125 g/ha, 0 to 100 scale): 20
- Plant response rating, Veronica hedera (ivyleaf speedwell; [9]): 50
- Plant response rating, Veronica hedera (ivyleaf speedwell; [10]): 70
- Plant response rating, Comnion poppy (common poppy; Rate 125 g/ha, 0 to 100 scale): 30
- Plant response rating, Common poppy (common poppy; [9]): 10
- Plant response rating, Common poppy (common poppy; [10]): 10
- Plant response rating, LS canarygrass (littleseed canarygrass; Rate 125 g/ha, 0 to 100 scale): 25
- Plant response rating, LS canarygrass (littleseed canarygrass; [9]): 50
- Plant response rating, LS canarygrass (littleseed canarygrass; [10]): 65
- Plant response rating, Wild buckwheat (wild buckwheat [6]; [7]): 20
- Plant response rating, Wild buckwheat (wild buckwheat [6]; Rate 250 g/ha, 0 to 100 scale): 85
- Plant response rating, Wild buckwheat (wild buckwheat [6]; [8]): 90
- Plant response rating, Galium (galium; [7]): 100
- Plant response rating, Galium (galium; Rate 250 g/ha, 0 to 100 scale): 100
- Plant response rating, Galium (galium; [8]): 100
- Plant response rating, Rape (rape; [7]): 10
- Plant response rating, Rape (rape; Rate 250 g/ha, 0 to 100 scale): 55
- Plant response rating, Rape (rape; [8]): 65
- Plant response rating, Spring Wheat (spring wheat; [7]): 20
- Plant response rating, Spring Wheat (spring wheat; Rate 250 g/ha, 0 to 100 scale): 40
- Plant response rating, Spring Wheat (spring wheat; [8]): 50
- Plant response rating, Barley (winter) (winter barley; Rate 125 g/ha, 0 to 100 scale): 40
- Plant response rating, Barley (winter) (winter barley; [9]): 20
- Plant response rating, Barley (winter) (winter barley; [10]): 10
